Measured values: patent publication US12643867B2, “Compositions and uses thereof” (University of Virginia Patent Foundation, priority 2017, dated 2026)

Assays:
ARAF = target: T1, ARAF (Homo sapiens, UniProt P10398); test: ATP acyl phosphate chemical proteomics in lung cancer cell proteomes (targeted PRM); type: binding; settings: H82 proteomes
T1 construct: measure selectivity of compounds against native kinases detected in lung cancer proteomes; endogenous in cells; host or cells: H82 (and A549) cell proteomes
T1 sequence (P10398 whole entry): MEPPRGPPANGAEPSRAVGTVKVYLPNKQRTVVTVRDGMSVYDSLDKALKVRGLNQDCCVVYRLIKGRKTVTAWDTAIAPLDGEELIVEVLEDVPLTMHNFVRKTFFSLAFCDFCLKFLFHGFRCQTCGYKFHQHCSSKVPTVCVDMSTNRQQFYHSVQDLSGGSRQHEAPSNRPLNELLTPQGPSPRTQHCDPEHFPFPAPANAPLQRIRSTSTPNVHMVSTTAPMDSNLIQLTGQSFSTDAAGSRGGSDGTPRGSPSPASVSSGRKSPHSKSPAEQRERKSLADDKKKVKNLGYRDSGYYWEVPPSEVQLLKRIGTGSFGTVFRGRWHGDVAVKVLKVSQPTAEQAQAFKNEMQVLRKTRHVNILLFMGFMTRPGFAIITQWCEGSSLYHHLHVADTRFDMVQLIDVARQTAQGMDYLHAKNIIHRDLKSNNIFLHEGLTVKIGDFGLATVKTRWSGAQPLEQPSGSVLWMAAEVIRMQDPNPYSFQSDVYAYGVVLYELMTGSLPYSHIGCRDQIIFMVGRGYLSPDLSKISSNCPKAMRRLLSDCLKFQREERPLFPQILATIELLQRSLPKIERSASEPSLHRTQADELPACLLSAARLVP
Method: (§1) LC-MS analysis of SILAC samples using ATP acyl phosphates. Quantitative chemoproteomics was performed as previously described (Franks et al., 2017; McCloud et al., 2018).
(§2) To further confirm that ritanserin is a CRAF inhibitor, a targeted parallel reaction monitoring method (PRM) was developed to evaluate compound activity against CRAF and other members of the RAF family (ARAF and BRAF). Targeted PRM was needed because of the low abundance of CRAF compared with ARAF and BRAF). […] Ritanserin activity was also measured against RAF kinases in A549 proteomes using the targeted LC-MS method. […] The data further support previous findings that this RAF member is enriched in SCLC cells (REF).

BRAF = target: T2, BRAF (Homo sapiens, UniProt P15056); test: ATP acyl phosphate chemical proteomics in lung cancer cell proteomes; type: binding
T2 construct: measure selectivity of compounds against native kinases detected in lung cancer proteomes; endogenous in cells; host or cells: A549 and H82 lung cancer cell proteomes
T2 sequence (P15056 whole entry): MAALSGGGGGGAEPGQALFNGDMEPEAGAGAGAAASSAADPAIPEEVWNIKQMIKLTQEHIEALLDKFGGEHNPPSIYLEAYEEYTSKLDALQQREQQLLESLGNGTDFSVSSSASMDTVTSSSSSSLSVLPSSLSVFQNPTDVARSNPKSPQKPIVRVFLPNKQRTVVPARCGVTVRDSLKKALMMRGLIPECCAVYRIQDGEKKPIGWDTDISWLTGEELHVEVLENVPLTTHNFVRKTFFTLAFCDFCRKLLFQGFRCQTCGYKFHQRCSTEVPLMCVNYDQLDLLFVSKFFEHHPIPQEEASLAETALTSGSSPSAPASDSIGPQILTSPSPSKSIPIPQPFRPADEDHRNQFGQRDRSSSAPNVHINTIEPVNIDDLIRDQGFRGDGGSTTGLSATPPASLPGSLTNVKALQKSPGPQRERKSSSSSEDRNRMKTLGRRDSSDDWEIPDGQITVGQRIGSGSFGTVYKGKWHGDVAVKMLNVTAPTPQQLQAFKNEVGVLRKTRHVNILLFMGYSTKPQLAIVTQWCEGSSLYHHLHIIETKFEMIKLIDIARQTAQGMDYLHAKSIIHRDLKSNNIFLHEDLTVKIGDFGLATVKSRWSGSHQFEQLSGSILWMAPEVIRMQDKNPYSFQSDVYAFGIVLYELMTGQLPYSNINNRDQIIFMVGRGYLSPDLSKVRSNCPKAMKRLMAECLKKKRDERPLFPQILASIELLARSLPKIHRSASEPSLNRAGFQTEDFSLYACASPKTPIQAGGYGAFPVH
Method: as §1
Computational Methods. Data for A549 and H82 cell lines were searched with IP2 and manually validated using the methods previously described (Franks et al., 2017). Data for Desthiobiotin-tagged ATP acyl-phosphate probes and ATP competitive peptides were compared and clustered. Ritanserin and ketanserin inhibition profiles were compared using SILAC ratios and normalized to DMSO.
Based on previous chemical proteomics (Franks, 2017), it was hypothesized that ritanserin is functioning as a kinase inhibitor to mediate cytotoxicity in the lung cancer cell models. […] For these studies, NSCLC and SCLC cells were cultured in isotopically light and heavy amino acids to enable quantitative chemical proteomics (Chang. 2015) by stable isotope labeling with amino acids in cell culture (SILAC, FIG. 17A). […] After probe labeling, light and heavy proteomes were combined, digested with trypsin protease, and desthiobiotin-modified peptides enriched by avidin affinity chromatography and analyzed by LC-MS/MS to identify and quantify isotopically tagged active-site peptides from native kinases as previously described(Franks, 2017) (FIG. 17A).
as §2

SMILES: Cc1nc2sccn2c(=O)c1CCN1CCC(=C(c2ccc(F)cc2)c2ccc(F)cc2)CC1 [Ritanserin]
- activity by targeted PRM (ARAF): negligible activity
- inhibition by three-fold change cutoff (BRAF; 100 μM, A549 and H82 proteomes): BRAF inhibition
- activity by targeted PRM (BRAF; H82 proteomes): negligible activity
